According to patent publication US8470811B2, “Substituted heterocyclylbenzylpyrazoles and use thereof” (Bayer Intellectual Property GmbH, priority 2010, dated 2013):
One block for each compound: values may come before it.

Columns and labels:
[1] = Pharmacokinetic parameters after intravenous administration in rats; type: in vivo; settings: for half-life / Vd / clearance: rat, iv, 0.3-1.0 mg/kg, solution in plasma with up to 2% DMSO; for Vd: read-out: VSS; for clearance: read-out: CLplasma (converted)
Protocol: (§1) The substance to be examined was administered to animals (for example mice or rats) intravenously as a solution (for example in corresponding plasma with a small addition of DMSO or in a PEG/ethanol/water mixture), and peroral administration was effected as a solution (for example in Solutol/ethanol/water or PEG/ethanol/water mixtures) or as a suspension (e.g. in tylose), in each case via a gavage. After administration of the substance, blood was taken from the animals at fixed times. The blood was heparinized, then plasma was obtained therefrom by centrifugation. The substance was quantified analytically in the plasma via LC-MS/MS. From the plasma concentration/time plots determined in this way, using an internal standard and with the aid of a validated computer program, the pharmacokinetic parameters, such as AUC (area under the concentration/time curve), Cmax (maximum plasma concentration), t1/2 (half life), VSS (distribution volume) and CL (clearance), and the absolute and relative bioavailability F and Frel (i.v./p.o. comparison or comparison of suspension to solution after p.o. administration), were calculated.
The substance to be examined was administered intravenously to rats, in each case in amounts between 0.3 and 1.0 mg/kg as a solution in plasma which contained up to 2% DMSO.

[2] = Pharmacokinetic parameters after peroral administration in rats; type: in vivo; settings: for half-life: rat, plasma, po
Protocol: as §1
To determine the active ingredient release from a prodrug compound, the prodrug was administered either intravenously or perorally, as described above, and the concentrations both of the prodrug and of the active ingredient released were quantified in the processed plasma.
The substance to be examined was administered perorally to rats, in each case in amounts between 1 and 3 mg/kg as a solution in Solutol/ethanol/water (40:10:50 or 40:20:40). The kinetic parameters determined for Working Example 1 are shown below by way of example for the inventive compounds [AUCnorm=dose-normalized exposure (area under the concentration/time curve)]:
The second row in this table gives the pharmacokinetic parameters for Example 1, as obtained after peroral administration of the prodrug compound from Example 15 (1 mg/kg of crystalline substance as a tylose suspension in water).

[3] = pH-dependent hydrolysis stability; type: physicochemical
Protocol: 0.3 mg of the test substance (prodrug) was weighed into a 2 ml HPLC vial, and 0.6 ml of acetonitrile or acetonitrile/DMSO mixture (with up to 20 percent by volume of DMSO) was added. To dissolve the substance, the sample vessel was placed into an ultrasound bath for approx. 10 seconds. Subsequently, 1.0 ml of the particular aqueous buffer solution was added (commercially available buffer solutions of pH 2, 4, 6.5, 8 and 10) and the sample was treated again in the ultrasound bath. Over a period of 24 hours at 37° C., 5 μl of the sample solution were analysed by HPLC every hour for its content of unchanged prodrug or active ingredient released therefrom by hydrolysis. Quantification was effected via the area percentages of the corresponding HPLC peaks.

[4] = rats, 1-3 mg/kg, solution in Solutol/ethanol/water
[5] = rats, p.o., 1-3 mg/kg, solution in Solutol/ethanol/water

CLplasma ([1]; intravenous administration): 0.4 I/h/kg
half-life [1]: 30 h
Vd [1]: 6.9 L/kg
half-life [2, 4]: 29 h
AUCnorm [2, 5]: 1.9 kg·h/L
F [2, 5]: 74%
Compound: Cc1ccc(Cn2nc(-c3nc(-c4ccc(OC(F)(F)F)cc4)no3)cc2C)cc1 [Example 1 in WO 2008/141731-A2, 5-[5-methyl-1-(4-methylbenzyl)-1H-pyrazol-3-yl]-3-[4-(trifluoromethoxy)phenyl]-1,2,4-oxadiazole, reference compound]

half-life [1]: 6.8 h
clearance [1]: 26.7 mL/min/kg
Vd [1]: 12 L/kg
AUCnorm ([2]; Example 1 in rat plasma after p.o. administration of prodrug Example 15, 1 mg/kg crystalline substance as tylose suspension in water): 0.35 kg·h/L
half-life [2, 4]: 12 h
AUCnorm [2, 5]: 0.43 kg·h/L
F [2, 5]: 68%
Compound: Cc1cc(-c2nc(-c3ccc(OC(F)(F)F)cc3)no2)nn1Cc1cccc(N2CC(O)C2)c1 [Example 1, 1-{3-[(5-Methyl-3-{3-[4-(trifluoromethoxy)phenyl]-1,2,4-oxadiazol-5-yl}-1H-pyrazol-1-yl)methyl]phenyl}azetidin-3-ol]

half-life [1]: 8.2 h
clearance [1]: 12 mL/min/kg
Vd [1]: 7.8 L/kg
Compound: Cc1cc(-c2nc(-c3ccc(SC(F)(F)F)cc3)no2)nn1Cc1cccc(N2CCC(O)CC2)c1 [Example 14, 1-(3-{[5-Methyl-3-(3-{4-[(trifluoromethyl)sulphanyl]phenyl}-1,2,4-oxadiazol-5-yl)-1H-pyrazol-1-yl]methyl}phenyl)piperidin-4-ol]

prodrug compound itself in the plasma of the rats ([2]; after p.o. administration of Example 15, 1 mg/kg tylose suspension, all times examined): not detectable
% Example 15 prodrug ([3]; pH 2, 37° C., 12 h): 89%
% Example 15 prodrug ([3]; pH 4, 37° C., 12 h): 89%
% Example 15 prodrug ([3]; pH 6.5, 37° C., 0 h): 94%
% Example 15 prodrug ([3]; pH 6.5, 37° C., 2 h): 91%
% Example 15 prodrug ([3]; pH 6.5, 37° C., 4 h): 87%
% Example 15 prodrug ([3]; pH 6.5, 37° C., 6 h): 84%
% Example 15 prodrug ([3]; pH 6.5, 37° C., 12 h): 73%
% Example 15 prodrug ([3]; pH 6.5, 37° C., 24 h): 56%
% Example 15 prodrug ([3]; pH 8, 37° C., 12 h): 64%
% Example 15 prodrug ([3]; pH 10, 37° C., 12 h): 0%
% Example 1 active ingredient ([3]; released from Example 15, pH 2, 37° C., 12 h): 6%
% Example 1 active ingredient ([3]; released from Example 15, pH 4, 37° C., 12 h): 9%
% Example 1 active ingredient ([3]; released from Example 15, pH 6.5, 37° C., 0 h): 3%
% Example 1 active ingredient ([3]; released from Example 15, pH 6.5, 37° C., 2 h): 7%
% Example 1 active ingredient ([3]; released from Example 15, pH 6.5, 37° C., 4 h): 10%
% Example 1 active ingredient ([3]; released from Example 15, pH 6.5, 37° C., 6 h): 13%
% Example 1 active ingredient ([3]; released from Example 15, pH 6.5, 37° C., 12 h): 22%
% Example 1 active ingredient ([3]; released from Example 15, pH 6.5, 37° C., 24 h): 35%
% Example 1 active ingredient ([3]; released from Example 15, pH 8, 37° C., 12 h): 30%
% Example 1 active ingredient ([3]; released from Example 15, pH 10, 37° C., 12 h): 78%
Compound: Cc1cc(-c2nc(-c3ccc(OC(F)(F)F)cc3)no2)nn1Cc1cccc(N2CC(OC(=O)CN(C)C)C2)c1 [Example 15, 1-{3-[(5-Methyl-3-{3-[4-(trifluoromethoxy)phenyl]-1,2,4-oxadiazol-5-yl}-1H-pyrazol-1-yl)methyl]phenyl}azetidin-3-yl N,N-dimethylglycinate]
